Results taken from US20140350034A1, “Aminopyridine derivatives as plasma kallikrein inhibitors” (NOVARTIS AG, priority 2012, published 2014).

Target: T1, Human plasma kallikrein (Homo sapiens, UniProt P03952)
T1 construct: purchased Kordia (Leiden, Netherlands) batch HPKA 1303
Assay: In vitro inhibition of plasma kallikrein (fluorogenic substrate DPro-Phe-Arg-(Rh110)-γGlu-OH)
Type: biochemical
Conditions: human plasma kallikrein 12 pM, substrate 0.5 μM, 1 hour pre-incubation at room temperature, read after 1 hour
Description: In Vitro Inhibition of Plasma Kallikrein
The fluorogenic substrate DPro-Phe-Arg-(Rh110)-γGlu-OH (where DPro is the amino acid d-proline, Rh110 is the fluorophore rhodamine 110 and γGlu is a […] linked to Rh110 via the gamma-carbonyl function; from Biosyntan, Berlin, Germany), being based on the chromogenic substrate described in Gallimore et al (Thromb Res 25, 293-298, 1982), was dissolved in DMSO at 5 mM and stored at −80° C. All other chemicals were of analytical grade.
Human plasma kallikrein was purchased from Kordia (Leiden, Netherlands, batch HPKA 1303) in lyophilized form.
The protein solution was reconstituted from the lyophilisate by addition of deinonized water. The resulting stock solution comprised the protein at a concentration of 0.17 mg/ml in 4 mM sodium acetate/HCl and 150 mM NaCl at pH 5.3. The stock solution was stored in aliquots at −80° C.
Enzymatic reactions were conducted in ‘assay buffer’, comprising 50 mM Hepes/NaOH at pH 7.8, 150 mM NaCl, 1 mM EDTA and 0.05% (w/v) CHAPS.
Both, enzyme and substrate were diluted in assay buffer.
All protein and peptide containing solutions were handled in siliconized tubes (Life Systems Design, Merenschwand, Switzerland). The compound solutions as well as the enzyme and the substrate solutions were transferred to 384-well plates (black Cliniplate; cat. no. 95040020 Labsystems Oy, Finland) by means of a CyBi-Well 96-channel pipettor (CyBio AG, Jena, Germany). Plate measurements were conducted by the means of a Safire2 reader (TECAN, Maennedorf, Switzerland). The Safire2 is a monochomator-based instrument and wavelengths of 485 nm and 535 nm were taken for fluorescence excitation and emission acquisition, respectively. The bandwidths were set to 10 nm in both the excitation and the emission path. The fluorescence in each well was excited by three flashes per measurement.
Determination of IC50 Values
For the determination of IC50 values, the assays were performed at room temperature in 384-well plates with a total assay volume of 25.25 μl per well.
The test compound was dissolved in 90% (v/v) DMSO/water. For the assays, 250 nL of the 90% (v/v) DMSO/water solution or compound solution were added per well, followed by the addition of 12.5 μl protease solution (protease in assay buffer). The final assay concentration of the human plasma kallikrein was nominally 12 pM, the 11 compound concentrations in the dilution series were in the range form 1 nM to 100 μM. After 1 hour of pre-incubation at room temperature, the reactions were started by the addition of 12.5 μl substrate solution (in assay buffer, final assay concentration was 0.5 μM). After the addition of the substrate solution, the final DMSO concentration in the assay was 0.9% (v/v). The effect of the compound on the enzymatic activity was obtained from the linear part of the progress curves and determined after 1 hour (t=60 min). The IC50 value was calculated from the plot of percentage of inhibition vs. inhibitor concentration by a logistics fit according to the following equation:
where y is the %-inhibition at the inhibitor concentration, x. A1 is the lowest inhibition value, i.e. 0%, and A2 the maximum inhibition value, i.e. 100%. The exponent, p, is the Hill coefficient. The curve fitting was conducted with the non-linear regression routine of the analysis software Origin 7.5SR6 (Origin Lab Corporation).

T1 sequence (P03952 391-638 limits assumed): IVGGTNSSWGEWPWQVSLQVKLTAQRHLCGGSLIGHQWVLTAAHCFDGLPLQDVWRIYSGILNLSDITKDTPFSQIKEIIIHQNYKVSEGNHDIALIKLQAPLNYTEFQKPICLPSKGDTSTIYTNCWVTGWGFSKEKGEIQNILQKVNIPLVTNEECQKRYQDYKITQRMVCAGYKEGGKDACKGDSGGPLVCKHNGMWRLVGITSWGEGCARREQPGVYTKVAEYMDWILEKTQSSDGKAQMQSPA
T1 sequence (P03952 20-390 partner limits assumed): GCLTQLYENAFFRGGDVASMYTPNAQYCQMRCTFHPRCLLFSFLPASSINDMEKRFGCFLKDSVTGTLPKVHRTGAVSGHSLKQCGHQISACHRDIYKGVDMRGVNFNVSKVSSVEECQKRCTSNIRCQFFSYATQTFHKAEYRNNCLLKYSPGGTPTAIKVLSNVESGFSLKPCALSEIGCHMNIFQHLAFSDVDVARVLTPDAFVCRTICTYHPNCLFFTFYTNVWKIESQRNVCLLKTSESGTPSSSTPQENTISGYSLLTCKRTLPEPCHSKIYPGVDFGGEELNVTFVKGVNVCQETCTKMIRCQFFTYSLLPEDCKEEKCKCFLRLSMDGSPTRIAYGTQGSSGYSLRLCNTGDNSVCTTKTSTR

IC50 [µM]	Compound
27.1	CCc1cc2c(NCc3c(C)cc(N)nc3C)ncnc2s1 [Example 1, N-((6-amino-2,4-dimethylpyridin-3-yl)methyl)-6-ethylthieno[2,3-d]pyrimidin-4-amine]
1.78	Cc1cc(N)nc(C)c1CNc1ncnc2oc(Cc3c(Cl)cccc3Cl)nc12 [Example 4, N-((6-amino-2,4-dimethylpyridin-3-yl)methyl)-2-(2,6-dichlorobenzyl) oxazolo[5,4-d]pyrimidin-7-amine]

Further lines, the molecule ahead of its results:

Compound	IC50 [µM]
Cc1cc(N)nc(C)c1CNC(=O)c1cc2ccccc2s1 [Example 3, N-((6-amino-2,4-dimethylpyridin-3-yl)methyl)benzo[b]thiophene-2-carboxamide]	5.39
Cc1cc(N)nc(C)c1CNc1ncc2ccn(Cc3ccc4ccccc4c3)c2n1 [Example 7, N-((6-amino-2,4-dimethylpyridin-3-yl)methyl)-7-(naphthalen-2-ylmethyl)-7H-pyrrolo[2,3-d]pyrimidin-2-amine]	1.63
Cc1cc(N)nc(C)c1CNC(=O)c1ccc2ccccc2c1 [Example 6, N-((6-amino-2,4-dimethylpyridin-3-yl)methyl)-2-naphthamide]	2.32
Cc1cc(N)nc(C)c1CNC(=O)c1cc2ccccc2o1 [Example 2, N-((6-amino-2,4-dimethylpyridin-3-yl)methyl)benzofuran-2-carboxamide]	4.73
Cc1cc(N)nc(C)c1CNC(=O)c1cc2ccccc2[nH]1 [Example 5, N-((6-amino-2,4-dimethylpyridin-3-yl)methyl)-1H-indole-2-carboxamide]	3.81

Same assay, conditions: the above-described assay (human plasma kallikrein)

IC50 [µM]	Compound
> 30	COc1cc2ncnc(NCc3c(C)cc(N)nc3C)c2cc1OC [N-((6-amino-2,4-dimethyl-pyridin-3-yl)-methyl)-8,9-dimethoxy-2,4-diaza-bicyclo[4.4.0]deca-1(6),2,4,7,9-pentaen-5-amine]
> 30	Cc1cc(N)nc(C)c1CNc1ncnc2c1ccn2C [N-((6-amino-2,4-dimethyl-pyridin-3-yl)-methyl)-9-methyl-2,4,9-triaza-bicyclo[4.3.0]nona-1(6),2,4,7-tetraen-5-amine]
